Read-outs that look alike come from different tables or passages of the source.
Key:
[1] = test system: A375-C5; parameters: method as in Novais et al. [17]; settings: 48 h; ref Novais et al. [17]; cited from earlier work
[2] = test system: MCF-7; settings: 48 h, cited from earlier work
[3] = test system: HCT116 (HCT116 p53+/+); settings: 48 h, cited from earlier work
[4] = test system: HPAEpiC; parameters: method as in Novais et al. [17]; settings: 48 h, non-tumor cells; ref Novais et al. [17]; cited from earlier work
[5] = test system: HFF-1 and HPAEpiC cells; parameters: method as in PMID 34170069, PMID 34885726; settings: fibroblasts HFF-1 and HPAEpiC; ref [12],[17]; cited from earlier work
[6] = parameters: method as in PMID 34885726; settings: used at 2×GI50; ref [17]; cited from earlier work
[7] = test system: A375-C5; assay: Sulforhodamine B (SRB) growth inhibition assay, melanoma cells; format: cell-based; settings: Homo sapiens, 48 h
Description: (§1) A sulforhodamine B (SRB) assay was performed to evaluate the in vitro growth inhibitory activity of all synthesized hybrids, as well as intermediates in the human tumor cell lines of melanoma (A375-C5), breast adenocarcinoma (MCF-7), and colorectal carcinoma (HCT116), as well as on the non-tumor Human Pulmonary Alveolar Epithelial cell line (HPAEpiC). The concentration inducing 50% cell growth inhibition (GI50), was calculated. […] The overall results prompt us to further investigate the mechanism behind the cytotoxic activities of compounds 6, 7, and 13 in colorectal tumor cells. Moreover, in silico studies were performed, aiming to screen for drug-likeness.
(§2) A375-C5 (melanoma) and MCF-7 (breast adenocarcinoma) cell lines were obtained from the European Collection of Cell Culture, UK, and were grown in RPMI-1640 medium (Roswell Park Memorial Institute, Biochrom, Cambridge, UK) with 5% inactivated FBS (fetal bovine serum, Biochrom). HCT-116 (colon adenocarcinoma) cells were grown in DMEM medium (Dulbecco’s Modified Eagle’s, Biochrom) with 5% inactivated FBS. The non-tumor human pulmonary alveolar epithelial cells (HPAEpiC) were obtained from ScienCell Research Laboratories and grown in DMEM medium supplemented with 10% FBS and 1% non-essential amino acids (Sigma-Aldrich Co., Saint Louis, MO, USA). All cell lines were maintained in a humidified incubator (Hera Cell, Heraeus, Hanau, Germany) at 37 °C and with 5% CO2, and cell viability was regularly monitored using the exclusion trypan blue dye.
(§3) A total of 5.0 × 10^4 A375-C5, MCF-7, and HCT-116 cells, or 6.0 × 10^4 HPAEpiC cells were seeded in 96-well plates and incubated at 37 °C and 5% CO2 to allow for cell attachment. After 24 h, cells were treated with two-fold serial dilutions of test compounds (0–150 µM), or with DMSO as the compound solvent. In parallel, cells in a time-zero (T0) plate, without treatment, were fixed with 50% (m/v) trichloroacetic acid (TCA, Merck Millipore, Darmstadt, Germany), for 1 h at 4 °C, and then washed with distilled water and left to dry. Forty-eight hours after compound treatment, cells were fixed with 50% TCA and stained with SRB (Sigma-Aldrich Co., Ltd., Gillingham, UK) for 30 min at room temperature, followed by 5 rounds of washing with 1% (v/v) acetic acid (Merck Milli-pore, Darmstadt, Germany). SRB–protein complexes were then solubilized with […] Tris buffer (Sigma-Aldrich Co., Ltd., Gillingham, UK) for 30 min, and the absorbance was measured at 515 nm in a microplate reader (Biotek Synergy 2, BioTek Instruments, Inc., Winooski, VT, USA). A dose-response curve was obtained for each cell line, and the concentration that caused 50% cell growth inhibition (GI50) was calculated.

[8] = test system: HPAEpiC; assay: SRB growth inhibition assay, non-tumor pulmonary alveolar epithelial cells; format: cell-based; settings: Homo sapiens, Epithelial cell, 48 h
Description: as §1, §2, §3

[9] = test system: HCT116 p53−/−; assay: SRB growth inhibition assay, p53 knocked-out colorectal cells; format: cell-based, human
Description: as §3

[10] = target: T1, p53–MDM2 interaction (Homo sapiens, UniProt Q00987); parameters: method as in doi:10.1016/j.arabjc.2016.04.015; settings: ref [16]; cited from earlier work
T1 construct: expressed in transfected cells; host or cells: Saccharomyces cerevisiae strain CG379
T1 sequence (Q00987 whole entry): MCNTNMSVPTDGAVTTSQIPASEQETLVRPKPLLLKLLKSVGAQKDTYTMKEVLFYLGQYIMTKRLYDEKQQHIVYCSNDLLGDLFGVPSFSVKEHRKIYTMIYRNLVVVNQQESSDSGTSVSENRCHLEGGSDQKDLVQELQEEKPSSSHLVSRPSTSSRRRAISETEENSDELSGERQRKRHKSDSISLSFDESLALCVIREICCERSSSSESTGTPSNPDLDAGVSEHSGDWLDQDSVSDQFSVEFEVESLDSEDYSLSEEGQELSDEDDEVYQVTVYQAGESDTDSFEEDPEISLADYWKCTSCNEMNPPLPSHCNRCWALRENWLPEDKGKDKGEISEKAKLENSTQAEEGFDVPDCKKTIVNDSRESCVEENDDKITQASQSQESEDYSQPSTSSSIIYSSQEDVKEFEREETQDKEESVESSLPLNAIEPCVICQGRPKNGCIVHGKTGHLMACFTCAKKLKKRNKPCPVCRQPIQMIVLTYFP

[11] = test system: MCF-7; assay: SRB growth inhibition assay, breast adenocarcinoma cells; format: cell-based; settings: Homo sapiens, MCF7, 48 h
Description: as §1, §2, §3

[12] = test system: HCT116 (HCT116 p53+/+); assay: SRB growth inhibition assay, colorectal carcinoma cells; format: cell-based; settings: Homo sapiens, HCT-116
Description: as §1, §2, §3

[13] = target: T1, p53–MDM2 interaction; assay: Yeast targeted screening assay of p53–MDM2 interaction; settings: 10 μM, yeast cell-based assay, data not shown
Description: However, since CM-M345 (1) has been previously reported as a p53-MDM2 inhibitor by our research group, the effect of 10 μM of compounds 6, 7, and 13 on the p53–MDM2 interaction was analyzed using yeast cell-based assays.
Saccharomyces cerevisiae (strain CG379) expressing human wt p53 alone and combined with human MDM2 were obtained in previous works. For the expression of human proteins (routinely grown in minimal selective medium), cells were diluted to 0.05 OD600 in selective induction medium containing 2% (w/w) galactose, 1% (w/w) raffinose, 0.7% (w/w) yeast nitrogen base without amino acids from Difco (Quilaban, Sintra, Portugal), and all the amino acids required for yeast growth ([…]) except leucine and tryptophan. Yeast cells were incubated at 30 °C under continuous orbital shaking (200 rpm) with 10 µM compounds or 0.1% DMSO only, for approximately 42 h (time required by the control yeast, co-transformed with the empty vectors and incubated with DMSO only, to achieve 0.4 OD600). Yeast growth was analyzed by counting the number of colony-forming units (CFU) after 2 days of incubation at 30 °C on Sabouraud Dextrose Agar from Liofilchem (Frilabo, Porto, Portugal).

[14] = test system: HCT116 cells; assay: Apoptosis detection via flow cytometry (Annexin V-FITC/PI); format: cell-based, human; settings: HCT116, 48 h, vs untreated or DMSO
Description: Double labeling with annexin V-FITC and propidium iodide dyes was used to detect cells going through apoptotic events, using a flow cytometer in order to obtain insights into the mechanism by which compounds 6, 7, and 13 generate antiproliferative activity against colorectal carcinoma cells. For that, HCT116 cells were exposed to each compound for 48 h.
To evaluate apoptotic cell death, the “Annexin V-FITC Apoptosis Detection Kit” (eBioscience, Vienna, Austria) was used according to the manufacturer’s instructions. Briefly, 1.2 × 10^5 cells/well were seeded into 6-well plates, and 24 h later, cells were treated with compounds 6, 7, and 13. After 48 h, floating and adherent cells were collected, pelleted via centrifugation (1000 rpm, 5 min), and suspended in binding buffer. Annexin V-FITC was added and incubated for 10 min, protected from light. Cells were washed and resuspended in binding buffer, and 20 μg/mL of propidium iodide (PI) was added. Fluorescence was assessed using the BD Accuri™ C6 Plus flow cytometer (BD Biosciences, Qume Drive, San Jose, CA, USA), and the data were analyzed with the BD Accuri TM C6 Plus software (version 1.0.27.1, San Jose, CA, USA). At least 20,000 events per sample were collected.

[15] = test system: HCT116 cells; assay: Mitotic arrest / mitotic index by phase-contrast microscopy; format: cell-based, human; settings: HCT116, 24 h, phase contrast microscopy
Description: Disruption of cell cycle progression is considered one of the most common cytotoxic mechanisms of anticancer drugs. Moreover, the antimitotic effect of BP-M345 (2) has been previously reported. Therefore, compounds 6, 7, and 13 were tested for their capability to induce cell cycle arrest. HCT116 cells were exposed for 24 h to the compounds and then analyzed using phase contrast microscopy for morphological changes. Untreated and dimethyl sulfoxide (DMSO; solvent)-treated cells were used as negative controls. Cell exposure to nocodazole, an antimitotic agent, was used as a positive control. […] We thus calculated the mitotic index (MI), and observed a significant increase in MI in 7-treated cells (22.76 ± 4.30%) compared to the untreated (12.68 ± 1.98%) or DMSO-treated (12.81 ± 1.45%) (Figure 4c).
A total of 1.2 × 10^5 HCT-116 cells were grown in six-well dishes and treated for 24 h with 3.26 µM of compound 7. Cells treated with 1 µM nocodazole were used as a positive control for antimitotic activity. Untreated cells and cells treated with DMSO were included to exclude the cytotoxicity of the compound solvent. Mitotic index, and the percentage of mitotic cells over the total cell population were determined via cell-rounding under phase-contrast microscopy from at least ten random microscope fields.
For phase contrast microscopy images, a Nikon TE 2000-U microscope (Nikon, Amsterdam, The Netherlands) with a 10× objective was used, coupled to a DXM1200F digital camera with Nikon ACT-1 software (Melville, NY, USA). For fluorescence images, an Axio Observer Z.1 SD microscope (Carl Zeiss, Germany) was used, coupled to an AxioCam MR3, with the Plan Apochromatic 63×/NA 1.4 objective. The images were processed using ImageJ, version 1.51.

[16] = test system: A375-C5, MCF-7 and HCT116 cell lines; assay: SRB growth inhibition, range over the tumor cell lines of Table 1; format: cell-based; settings: Homo sapiens; SAR discussion, values of Table 1
Description: Considering the antiproliferative effects on tumor cells of all the studied compounds (Table 1), some SAR considerations may be undertaken (Figure 2). […] Nevertheless, this effect is not observed for the flavone derivatives 15 and 16. […] Additionally, with the screening of the synthetic intermediates, some conclusions can also be inferred (Figure 2).
as §3

| GI50 [7] | SI, selective index (GI50 of HCT116 p53−/−/GI50 of HCT116 p53+/+) [9] | GI50 [11] | GI50 ([12]; SRB, 48 h, read-out: GI50 HCT116) | GI50 ([12]; Table 2, 48 h, read-out: GI50 HCT116 p53+/+) | GI50 ([9]; Homo sapiens, HCT-116, Table 2, 48 h) | GI50 [16] | SMILES | GI50 [1] | GI50 ([2]; ref Novais et al. [17]) | GI50 ([3]; ref Moreira et al. [12]) | GI50 [4] | Cytotoxicity in non-tumor cell lines [5] | Mitotic index (MI) [6] | GI50 [8] | GI50 ([2]; ref Pereira et al. [16]) | GI50 ([3]; ref Pereira et al. [16]) | Inhibition of the p53–MDM2 interaction in yeast-based assays [10] | Effect on the p53–MDM2 interaction (reversal of the negative growth effect of MDM2 on p53) [13] | Apoptosis induction (Annexin V-positive cells) [14] | Accumulation of bright and rounded (mitotic) cells [15] |
| --- | --- | --- | --- | --- | --- | --- | --- | --- | --- | --- | --- | --- | --- | --- | --- | --- | --- | --- | --- | --- |
|  |  |  |  |  |  |  | COc1cc(/C=C2\COC/C(=C\c3cc(OC)c(OC)c(OC)c3)C2=O)cc(OC)c1OC [BP-M345 (2)] | 240 ± 10 nM | 450 ± 60 nM | 170 ± 10 nM | 1070 ± 160 nM | low cytotoxicity | 29.8 ± 5.6% |  |  |  |  |  |  |  |
| 5570 ± 60 nM | 1.31 |  |  |  |  |  | CCCc1c(OC)ccc(C(=O)/C=C/c2cc(OC)c(OC)c(OC)c2)c1O [CM-M345 (1), reference compound] |  |  |  |  |  |  | 6100 ± 660 nM | 2300 ± 100 nM | 2600 ± 200 nM | inhibitor of the interaction |  |  |  |
| 3610 ± 1110 nM | 0.68 | 39800 ± 2110 nM | 2810 ± 650 nM | 2810 ± 650 nM | 1900 ± 300 nM | 2810 to 39800 nM | CCCc1c(OCCNC(=O)OC(C)(C)C)ccc(C(=O)/C=C/c2cc(OC)c(OC)c(OC)c2)c1O [Compound 6, tert-butyl(E)-(2-(3-hydroxy-2-propyl-4-(3-(3,4,5-trimethoxyphenyl)acryloyl)phenoxy)ethyl)carbamate] |  |  |  |  |  |  | 9600 ± 940 nM |  |  |  | none of the tested compounds significantly reversed the negative inhibitory growth effect of MDM2 on p53 | induces apoptotic tumor cell death | not observed |

Source: PMC10303900, “Discovery of a New Chalcone-Trimethoxycinnamide Hybrid with Antimitotic Effect: Design, Synthesis, and Structure—Activity Relationship Studies” (Pharmaceuticals, 2023)
